Experimental data reported in patent US9994528B2, “Certain amino-pyridines and amino-triazines, compositions thereof, and methods for their use” (Cytokinetics, Inc., priority 2010, dated 2018).

These molecules were tested on rabbit skeletal myofibrils (approximately 90% fast fibers) (assay: Activation of fast skeletal myofibrils (PUMA coupled-enzyme ATPase assay)). Conditions: AC1.4 = concentration at which the compound increased the enzymatic activity by 40%; myofibril suspension at calcium level pCa25; PM12 buffer pH 6.8.
Type: biochemical
Experimental: Preparation of fast skeletal myofibrils. Rabbit skeletal myofibrils were prepared based upon the method of Herrmann et al. (Biochem. 32(28):7255-7263(1993). Myofibrils were prepared from rabbit psoas muscle purchased from Pel-Freez Biologicals (Arkansas) within 2 days of ordering, stored on ice. Minced muscle was homogenized in 10 volumes of ice-cold “standard” buffer (50 mM Tris, pH 7.4, 0.1 M potassium acetate, 5 mM KCl, 2 mM DTT, 0.2 mM PMSF, 10 μM leupeptin, 5 μM pepstatin, and 0.5 mM sodium azide) containing 5 mM EDTA and 0.5% Triton X-100 using an Omni-Macro homogenizer. Myofibrils were recovered by low speed centrifugation (3000 rpm for 10 minutes) and washed 2 times in the Triton X-100 containing buffer to ensure removal of cellular membrane. Following the Triton washes, myofibrils were washed 3 times in “standard” buffer containing 2 mM magnesium acetate. A final wash in assay buffer (12 mM PIPES, pH 6.8, 60 mM KCl, 1 mM DTT) was performed and brought to 10% sucrose for flash freezing in liquid nitrogen and storage at −80° C.
Activation of Fast Skeletal Myofibrils. Fast fiber activators were identified by measuring the enzymatic activity of muscle myofibril preparations using the proprietary PUMA™ (see, e.g., U.S. Pat. Nos. 6,410,254, 6,743,599, 7,202,051, and 7,378,254) assay system. Myofibril preparations consisted of rabbit skeletal muscle (approximately 90% fast fibers) that had been mechanically homogenized and washed with a detergent (triton X-100) to remove cellular membranes. This preparation retained all of the sarcomeric components in a native conformation and the enzymatic activity was still regulated by calcium. Compounds were tested using a myofibril suspension and a level of calcium sufficient to increase enzymatic activity of the myofibrils to 25% of their maximal rate (termed pCa25). Enzymatic activity was tracked via a pyruvate kinase and lactate dehydrogenase-coupled enzyme system. This assay regenerates myosin-produced ADP into ATP by oxidizing NADH, producing an absorbance change at 340 nm. The buffering system was 12 mM Pipes, 2 mM MgCl2, 1 mM DTT at pH 6.8 (PM12 buffer).
Using procedures similar to those described herein, utilizing reagents and intermediates commercially available (e.g., Sigma-Aldrich,) or readily synthesized by one of skill in the art, the compounds in Table 2 were synthesized, characterized and tested. AC1.4 values were determined according to the procedure described in Example 25, and the reported median AC1.4 values are as follows: A=<1 uM; B=1-10 uM; C=10-20 uM; D=>20 uM.

| Molecule | Mean AC1.4 |
| --- | --- |
| 2-{2-[3-({[3-fluoro-1-(3-fluoro(2- pyridyl))cyclobutyl]methyl}amino)-1,2,4- triazin-6-yl]-1,3-thiazoI-5-yl}acetamide | C (C=10-20 uM) |
| CC(C)(Nc1ncc(-n2cc(C(N)=O)cn2)nn1)c1ncccc1Cl [1-(3-{[1-(3-chloro(2-pyridyl))-isopropyl]amino}-1,2,4-triazin-6-yl)pyrazole-4-carboxamide] | D (D=>20 uM) |
| CC(C)(Nc1ncc(-n2cc(C(N)=O)cn2)nn1)c1ncccc1F [1-(3-{[1-(3-fluoro(2-pyridyl))-isopropyl]amino}-1,2,4-triazin-6-yl)pyrazole-4-carboxamide] | D (D=>20 uM) |
| CC(C)(CNc1ncc(-n2cc(C(N)=O)cn2)nn1)c1ccc(F)cc1 [1-(3-{[2-(4-fluorophenyl)-2-methylpropyl]amino}-1,2,4-triazin-6-yl)pyrazole-4-carboxamide] | B (B=1-10 uM) |
| NC(=O)c1cnn(-c2cnc(NC3(c4ncccc4F)CCC3)nn2)c1 [1-(3-{[(3-fluoro-2-pyridyl)cyclobutyl]amino}-1,2,4-triazin-6-yl)pyrazole-4-carboxamide] | D (D=>20 uM) |
| CC(C)(CNc1ccc(C(O)CO)cn1)c1ccc(F)cc1 (centres unmarked) [1-(6-{[2-(4-fluorophenyl)-2-methylpropyl]amino}-3-pyridyl)ethane-1,2-diol] | D (D=>20 uM) |
| CC(C)(Nc1ncc(-n2cc(C(N)=O)cn2)nn1)c1cccc(OC(F)F)n1 [1-[3-({1-[6-(difluoromethoxy)(2-pyridyl)]-isopropyl}amino)-1,2,4-triazin-6-yl]pyrazole-4-carboxamide] | B (B=1-10 uM) |
| NC(=O)c1cnn(-c2cnc(NCC3(c4ncccc4F)CCC3)nn2)c1 [1-[3-({[(3-fluoro-2-pyridyl)cyclobutyl]methyl}amino)-1,2,4-triazin-6-yl]pyrazole-4-carboxamide] | B (B=1-10 uM) |
| CC(C)(Nc1ncc(-c2ncc(CC(N)=O)s2)nn1)c1ncccc1F [2-[2-(3-{[1-(3-fluoro(2-pyridyl))-isopropyl]amino}-1,2,4-triazin-6-yl)-1,3-thiazol-5-yl]acetamide] | D (D=>20 uM) |
| CC(C)(Nc1ncc(-c2cccc(CC(N)=O)c2)nn1)c1ncccc1F [2-[3-(3-{[1-(3-fluoro(2-pyridyl))-isopropyl]amino}-1,2,4-triazin-6-yl)phenyl]acetamide] | D (D=>20 uM) |
| CC(C)(Nc1ncc(-c2ncc(C(N)=O)s2)nn1)c1cccc(OC(F)F)n1 [2-[3-({1-[6-(difluoromethoxy)(2-pyridyl)]-isopropyl}amino)-1,2,4-triazin-6-yl]-1,3-thiazole-5-carboxamide] | B (B=1-10 uM) |
| CC(C)(Nc1ncc(-c2cc(CNC(=O)CN)ccc2F)nn1)c1ncccc1F [2-amino-N-{[4-fluoro-3-(3-{[1-(3-fluoro(2-pyridyl))-isopropyl]amino}(1,2,4-triazin-6-yl))phenyl]methyl}acetamide] | B (B=1-10 uM) |
| CC(C)(Nc1ncc(-c2ccc(F)c(C(N)=O)c2)nn1)c1ncccc1F [2-fluoro-5-(3-{[1-(3-fluoro(2-pyridyl))-isopropyl]amino}(1,2,4-triazin-6-yl))benzamide] | D (D=>20 uM) |
| CC(C)(Nc1ncc(-c2ccc(F)c(C(=O)O)c2)nn1)c1ncccc1F [2-fluoro-5-(3-{[1-(3-fluoro(2-pyridyl))-isopropyl]amino}(1,2,4-triazin-6-yl))benzoic acid] | D (D=>20 uM) |
| N#Cc1cc(-c2cnc(NCC3(c4ncccc4F)CCC3)nn2)ccc1F [2-fluoro-5-[3-({[(3-fluoro(2-pyridyl))cyclobutyl]methyl}amino)(1,2,4-triazin-6-yl)]benzenecarbonitrile] | C (C=10-20 uM) |
| NC(=O)Cc1cnc(-c2cnc(NCC3(c4ncccc4F)CCC3)nn2)s1 [2-{2-[3-({[(3-fluoro-2-pyridyl)cyclobutyl]methyl}amino)-1,2,4-triazin-6-yl]-1,3-thiazol-5-yl}acetamide] | C (C=10-20 uM) |
| CC(C)(CNc1ccc2cc(C(N)=O)ccc2n1)c1ccc(F)cc1 [2-{[2-(4-fluorophenyl)-2-methylpropyl]amino}quinoline-6-carboxamide] | B (B=1-10 uM) |
| CC(C)(Nc1ncc(-c2cc(C(N)=O)ccc2F)nn1)c1ncccc1Cl [3-(3-{[1-(3-chloro(2-pyridyl))-isopropyl]amino}(1,2,4-triazin-6-yl))-4-fluorobenzamide] | B (B=1-10 uM) |

| Molecule | Mean AC1.4 |
| --- | --- |
| CC(C)(Nc1ncc(-c2cccc(C(N)=O)c2)nn1)c1ncccc1Cl [3-(3-{[1-(3-chloro(2-pyridyl))-isopropyl]amino}-1,2,4-triazin-6-yl)benzamide] | B (B=1-10 uM) |
| CC(C)(Nc1ncc(-c2cccc(C(N)=O)c2)nn1)c1ncccc1F [3-(3-{[1-(3-fluoro(2-pyridyl))-isopropyl]amino}-1,2,4-triazin-6-yl)benzamide] | B (B=1-10 uM) |
| CC(C)(CNc1ncc(-c2cc(C(N)=O)ccc2F)nn1)c1ncccc1Cl [3-(3-{[2-(3-chloro(2-pyridyl))-2-methylpropyl]amino}(1,2,4-triazin-6-yl))-4-fluorobenzamide] | B (B=1-10 uM) |
| CC(C)(CNc1ncc(-c2cc(C(=O)O)ccc2F)nn1)c1ncccc1Cl [3-(3-{[2-(3-chloro(2-pyridyl))-2-methylpropyl]amino}(1,2,4-triazin-6-yl))-4-fluorobenzoic acid] | B (B=1-10 uM) |
| CC(C)(CNc1ncc(-c2cccc(C(N)=O)c2)nn1)c1ccc(F)cc1 [3-(3-{[2-(4-fluorophenyl)-2-methylpropyl]amino}-1,2,4-triazin-6-yl)benzamide] | B (B=1-10 uM) |
| NC(=O)c1cccc(-c2cnc(NCC3(c4ccccn4)CCC3)nn2)c1 [3-(3-{[(2-pyridylcyclobutyl)methyl]amino}-1,2,4-triazin-6-yl)benzamide] | B (B=1-10 uM) |
| N#Cc1cccc(-c2cnc(NCC3(c4ccccn4)CCC3)nn2)c1 [3-(3-{[(2-pyridylcyclobutyl)methyl]amino}-1,2,4-triazin-6-yl)benzenecarbonitrile] | B (B=1-10 uM) |
| CC(C)(CNc1cnc(-c2cccc(C(N)=O)c2)nn1)c1ccc(F)cc1 [3-(6-{[2-(4-fluorophenyl)-2-methylpropyl]amino}-1,2,4-triazin-3-yl)benzamide] | B (B=1-10 uM) |
| CC(C)(CNc1ccc(-c2cccc(C(N)=O)c2)cn1)c1ccc(F)cc1 [3-(6-{[2-(4-fluorophenyl)-2-methylpropyl]amino}-3-pyridyl)benzamide] | A (A=<1 uM) |
| CC(C)(CNc1ccc(CC(O)CO)cn1)c1ccc(F)cc1 (centres unmarked) [3-(6-{[2-(4-fluorophenyl)-2-methylpropyl]amino}-3-pyridyl)propane-1,2-diol] | D (D=>20 uM) |
| NC(=O)c1cccc(-c2ccc(NCCc3ccc(F)cc3)nc2)c1 [3-(6-{[2-(4-fluorophenyl)ethyl]amino}-3-pyridyl)benzamide] | D (D=>20 uM) |
| C[C@@H](CNc1ccc(-c2cccc(C(N)=O)c2)cn1)c1ccc(F)cc1 [3-(6-{[(2R)-2-(4-fluorophenyl)propyl]amino}-3-pyridyl)benzamide] | B (B=1-10 uM) |
| C[C@H](CNc1ccc(-c2cccc(C(N)=O)c2)cn1)c1ccc(F)cc1 [3-(6-{[(2S)-2-(4-fluorophenyl)propyl]amino}-3-pyridyl)benzamide] | B (B=1-10 uM) |
| CC(C)(Nc1ncc(-c2cc(C(N)=O)ccc2F)nn1)c1ncccc1C(F)F [3-[3-({1-[3-(difluoromethyl)(2-pyridyl)]-isopropyl}amino)(1,2,4-triazin-6-yl)]-4-fluorobenzamide] | C (C=10-20 uM) |
| CC(C)(Nc1ncc(-c2cc(C#N)ccc2F)nn1)c1ncccc1C(F)F [3-[3-({1-[3-(difluoromethyl)(2-pyridyl)]-isopropyl}amino)(1,2,4-triazin-6-yl)]-4-fluorobenzenecarbonitrile] | D (D=>20 uM) |
| CC(C)(Nc1ncc(-c2cc(C(N)=O)ccc2F)nn1)c1cccc(OC(F)F)n1 [3-[3-({1-[6-(difluoromethoxy)(2-pyridyl)]-isopropyl}amino)(1,2,4-triazin-6-yl)]-4-fluorobenzamide] | A (A=<1 uM) |
| CC(C)(Nc1ncc(-c2cc(C(N)=O)ccc2F)nn1)c1cccc(C(F)F)n1 [3-[3-({1-[6-(difluoromethyl)(2-pyridyl)]-isopropyl}amino)(1,2,4-triazin-6-yl)]-4-fluorobenzamide] | B (B=1-10 uM) |
